Measured values taken from ChEMBL document CHEMBL3714744, “Aryl sulfonamides” (2009).
Active and inactive are the calls of the source. The rule behind the calls is not given here.

Assays:
[1] = target: T1, C-C chemokine receptor type 9 (Homo sapiens, UniProt P51686); experiment: Antagonist activity against CCR9 in human MOLT4 cells assessed as inhibition of human recombinant TECK-induced calcium response pre-treated before TECK stimulation by Flou-4-AM dye based FLIPR assay; type: functional, cell-based, MOLT-4
T1 sequence (P51686 whole entry): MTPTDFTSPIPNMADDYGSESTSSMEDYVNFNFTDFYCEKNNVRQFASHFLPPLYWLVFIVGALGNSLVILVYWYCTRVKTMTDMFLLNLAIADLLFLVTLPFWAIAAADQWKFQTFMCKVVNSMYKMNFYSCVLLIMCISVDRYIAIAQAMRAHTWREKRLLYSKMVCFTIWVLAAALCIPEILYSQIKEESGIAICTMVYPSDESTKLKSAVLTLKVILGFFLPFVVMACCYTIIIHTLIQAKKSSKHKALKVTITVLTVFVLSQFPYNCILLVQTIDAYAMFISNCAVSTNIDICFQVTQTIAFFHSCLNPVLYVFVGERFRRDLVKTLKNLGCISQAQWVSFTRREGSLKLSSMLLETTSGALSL

[2] = tested on: Mus musculus; experiment: Inhibition of inflammatory bowel disease-associated growth retardation in MDR1a-knockout mouse at 50 mg/kg, sc dosed twice daily for 14 consecutive weeks starting at age 10 weeks; type: functional, organism-based

| SMILES | IC50 ([1]; molt-4) | IC50 [1] [nM] | also measured |
| --- | --- | --- | --- |
| Cc1ncccc1C(=O)c1cc(Cl)ccc1NS(=O)(=O)c1ccc(OC(F)(F)F)cc1 | in the range around 100 nM |  |  |
| CS(=O)(=O)c1ccc(S(=O)(=O)Nc2ccc(Cl)cc2C(=O)c2cccnc2)cc1 |  | < 100 |  |
| CC(C)(C)c1ccc(S(=O)(=O)Nc2ccc(Cl)cc2C(=O)c2ccncc2)cc1 |  |  | inhibition [2]: Active |
| CC(=O)c1ccc(S(=O)(=O)Nc2ccc(Br)cc2C(=O)c2ccncc2)cc1 |  | < 100 |  |
| Cc1ncccc1C(=O)c1cc(Cl)ccc1NS(=O)(=O)c1ccc(-c2cnco2)cc1 | in the range around 1000 nM |  |  |

Second part, led by results:

| IC50 ([1]; molt-4) | IC50 [1] [nM] | SMILES | also measured |
| --- | --- | --- | --- |
| in the range around 100 nM |  | COc1ccc(S(=O)(=O)Nc2ccc(Cl)cc2C(=O)c2ccccn2)cc1 |  |
|  | < 100 | O=C(c1ccncc1)c1cc(Cl)ccc1NS(=O)(=O)c1ccc([N+](=O)[O-])cc1 |  |
|  | < 100 | COC(=O)CCc1ccc(S(=O)(=O)Nc2ccc(Cl)cc2C(=O)c2ccnc(C)c2)cc1 |  |
|  | < 100 | Cc1cc(C(=O)c2cc(Cl)ccc2NS(=O)(=O)c2ccc(S(C)(=O)=O)cc2)ccn1 |  |
